{"source": "ChEMBL document CHEMBL1201862", "about": "“PubChem BioAssay data set” (2004)", "assay_in_all_cases": "DTP human tumour cell line panel, 48 h", "key": {"786-0": {"system": "786-0"}, "ACHN": {"system": "ACHN"}, "COLO 205": {"system": "COLO 205"}, "EKVX": {"system": "EKVX"}, "HCT-116": {"system": "HCT-116"}, "HOP-62": {"system": "HOP-62"}, "LOX IMVI": {"system": "LOX IMVI"}, "MCF7": {"system": "MCF7"}, "MOLT-4": {"system": "MOLT-4"}, "Malme-3M": {"system": "Malme-3M"}, "NCI-H460": {"system": "NCI-H460"}, "NCI-H522": {"system": "NCI-H522"}, "OVCAR-5": {"system": "OVCAR-5"}, "RPMI-8226": {"system": "RPMI-8226"}, "SF-295": {"system": "SF-295"}, "SK-MEL-28": {"system": "SK-MEL-28"}, "SK-MEL-2": {"system": "SK-MEL-2"}, "SK-MEL-5": {"system": "SK-MEL-5"}, "SW-620": {"system": "SW-620"}, "UACC-257": {"system": "UACC-257"}}, "note": "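Growth conditions: 96-well plates. Treatment: test compound, 48 hours, 5 concentrations. Analysis: linear interpolation between bracketing concentrations; unreached endpoints set to highest concentration. GI50: concentration for 50% inhibition of growth.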 The source made the active and inactive calls. Rule as the data show it: active = GI50 up to about 1.1 µM and inactive = higher."}
{"compound": "C/C(=N/O)c1cccc(Nc2nc3ccccc3c3[nH]c4ccccc4c23)c1", "values": [{"measurement": "GI50", "setting": "786-0", "result": "2.3 µM (inactive)"}, {"measurement": "GI50", "setting": "ACHN", "result": "1.59 µM (inactive)"}, {"measurement": "GI50", "setting": "COLO 205", "result": "2.24 µM (inactive)"}, {"measurement": "GI50", "setting": "EKVX", "result": "2.29 µM (inactive)"}, {"measurement": "GI50", "setting": "HCT-116", "result": "1.16 µM (inactive)"}, {"measurement": "GI50", "setting": "HOP-62", "result": "2.29 µM (inactive)"}, {"measurement": "GI50", "setting": "LOX IMVI", "result": "2.22 µM (inactive)"}, {"measurement": "GI50", "setting": "MCF7", "result": "1.48 µM (inactive)"}, {"measurement": "GI50", "setting": "MOLT-4", "result": "0.879 µM (active)"}, {"measurement": "GI50", "setting": "Malme-3M", "result": "3.92 µM (inactive)"}, {"measurement": "GI50", "setting": "NCI-H460", "result": "1.64 µM (inactive)"}, {"measurement": "GI50", "setting": "NCI-H522", "result": "1.5 µM (inactive)"}, {"measurement": "GI50", "setting": "OVCAR-5", "result": "2.65 µM (inactive)"}, {"measurement": "GI50", "setting": "RPMI-8226", "result": "2.26 µM (inactive)"}, {"measurement": "GI50", "setting": "SF-295", "result": "1.98 µM (inactive)"}, {"measurement": "GI50", "setting": "SK-MEL-28", "result": "3.6 µM (inactive)"}, {"measurement": "GI50", "setting": "SK-MEL-2", "result": "2.25 µM (inactive)"}, {"measurement": "GI50", "setting": "SK-MEL-5", "result": "1.63 µM (inactive)"}, {"measurement": "GI50", "setting": "SW-620", "result": "1.63 µM (inactive)"}, {"measurement": "GI50", "setting": "UACC-257", "result": "6.08 µM (inactive)"}]}
{"compound": "COc1cc2cc(C(=O)N3C[C@@H](CCl)c4c3cc(N)c3ccccc43)[nH]c2c(OC)c1OC", "values": [{"measurement": "GI50", "setting": "786-0", "result": "0.103 µM (active)"}, {"measurement": "GI50", "setting": "ACHN", "result": "0.00942 µM (active)"}, {"measurement": "GI50", "setting": "COLO 205", "result": "0.0776 µM (active)"}, {"measurement": "GI50", "setting": "EKVX", "result": "0.231 µM (active)"}, {"measurement": "GI50", "setting": "HCT-116", "result": "0.000301 µM (active)"}, {"measurement": "GI50", "setting": "HOP-62", "result": "0.00755 µM (active)"}, {"measurement": "GI50", "setting": "LOX IMVI", "result": "0.00313 µM (active)"}, {"measurement": "GI50", "setting": "MCF7", "result": "0.00145 µM (active)"}, {"measurement": "GI50", "setting": "MOLT-4", "result": "0.00557 µM (active)"}, {"measurement": "GI50", "setting": "Malme-3M", "result": "< 0.01 µM (active)"}, {"measurement": "GI50", "setting": "NCI-H460", "result": "0.00183 µM (active)"}, {"measurement": "GI50", "setting": "NCI-H522", "result": "0.00283 µM (active)"}, {"measurement": "GI50", "setting": "OVCAR-5", "result": "< 0.01 µM (active)"}, {"measurement": "GI50", "setting": "RPMI-8226", "result": "0.0076 µM (active)"}, {"measurement": "GI50", "setting": "SF-295", "result": "< 0.01 µM (active)"}, {"measurement": "GI50", "setting": "SK-MEL-28", "result": "< 0.01 µM (active)"}, {"measurement": "GI50", "setting": "SK-MEL-2", "result": "< 0.01 µM (active)"}, {"measurement": "GI50", "setting": "SK-MEL-5", "result": "< 0.01 µM (active)"}, {"measurement": "GI50", "setting": "SW-620", "result": "0.00201 µM (active)"}, {"measurement": "GI50", "setting": "UACC-257", "result": "0.237 µM (active)"}]}
{"compound": "Cc1n[nH]c(=O)n1N=C(c1ccccc1)c1ccccc1", "values": [{"measurement": "GI50", "setting": "786-0", "result": "> 100 µM (inactive)"}, {"measurement": "GI50", "setting": "ACHN", "result": "> 100 µM (inactive)"}, {"measurement": "GI50", "setting": "COLO 205", "result": "> 100 µM (inactive)"}, {"measurement": "GI50", "setting": "EKVX", "result": "> 100 µM (inactive)"}, {"measurement": "GI50", "setting": "HCT-116", "result": "> 100 µM (inactive)"}, {"measurement": "GI50", "setting": "HOP-62", "result": "> 100 µM (inactive)"}, {"measurement": "GI50", "setting": "LOX IMVI", "result": "> 100 µM (inactive)"}, {"measurement": "GI50", "setting": "MCF7", "result": "> 100 µM (inactive)"}, {"measurement": "GI50", "setting": "MOLT-4", "result": "> 100 µM (inactive)"}, {"measurement": "GI50", "setting": "Malme-3M", "result": "24.9 µM (inactive)"}, {"measurement": "GI50", "setting": "NCI-H460", "result": "> 100 µM (inactive)"}, {"measurement": "GI50", "setting": "NCI-H522", "result": "> 100 µM (inactive)"}, {"measurement": "GI50", "setting": "OVCAR-5", "result": "> 100 µM (inactive)"}, {"measurement": "GI50", "setting": "RPMI-8226", "result": "> 100 µM (inactive)"}, {"measurement": "GI50", "setting": "SF-295", "result": "> 100 µM (inactive)"}, {"measurement": "GI50", "setting": "SK-MEL-28", "result": "> 100 µM (inactive)"}, {"measurement": "GI50", "setting": "SK-MEL-2", "result": "> 100 µM (inactive)"}, {"measurement": "GI50", "setting": "SK-MEL-5", "result": "> 100 µM (inactive)"}, {"measurement": "GI50", "setting": "SW-620", "result": "> 100 µM (inactive)"}, {"measurement": "GI50", "setting": "UACC-257", "result": "> 100 µM (inactive)"}]}
{"compound": "CN(C)CC1CN=C(N)O1", "note": "(stereo not given)", "values": [{"measurement": "GI50", "setting": "786-0", "result": "> 100 µM (inactive)"}, {"measurement": "GI50", "setting": "ACHN", "result": "> 100 µM (inactive)"}, {"measurement": "GI50", "setting": "COLO 205", "result": "> 100 µM (inactive)"}, {"measurement": "GI50", "setting": "EKVX", "result": "> 100 µM (inactive)"}, {"measurement": "GI50", "setting": "HCT-116", "result": "> 100 µM (inactive)"}, {"measurement": "GI50", "setting": "HOP-62", "result": "> 100 µM (inactive)"}, {"measurement": "GI50", "setting": "LOX IMVI", "result": "> 100 µM (inactive)"}, {"measurement": "GI50", "setting": "MCF7", "result": "> 100 µM (inactive)"}, {"measurement": "GI50", "setting": "MOLT-4", "result": "> 100 µM (inactive)"}, {"measurement": "GI50", "setting": "Malme-3M", "result": "> 100 µM (inactive)"}, {"measurement": "GI50", "setting": "NCI-H460", "result": "> 100 µM (inactive)"}, {"measurement": "GI50", "setting": "NCI-H522", "result": "> 100 µM (inactive)"}, {"measurement": "GI50", "setting": "OVCAR-5", "result": "> 100 µM (inactive)"}, {"measurement": "GI50", "setting": "RPMI-8226", "result": "> 100 µM (inactive)"}, {"measurement": "GI50", "setting": "SF-295", "result": "> 100 µM (inactive)"}, {"measurement": "GI50", "setting": "SK-MEL-28", "result": "> 100 µM (inactive)"}, {"measurement": "GI50", "setting": "SK-MEL-2", "result": "> 100 µM (inactive)"}, {"measurement": "GI50", "setting": "SK-MEL-5", "result": "> 100 µM (inactive)"}, {"measurement": "GI50", "setting": "SW-620", "result": "> 100 µM (inactive)"}, {"measurement": "GI50", "setting": "UACC-257", "result": "> 100 µM (inactive)"}]}
{"compound": "CC(C)(C)[Si](C)(C)O[C@@H](C(=O)OC1C=CCCC1)[C@@H](NC(=O)c1ccccc1)c1ccccc1", "note": "(stereo not given in full)", "values": [{"measurement": "GI50", "setting": "786-0", "result": "23.8 µM (inactive)"}, {"measurement": "GI50", "setting": "ACHN", "result": "19.1 µM (inactive)"}, {"measurement": "GI50", "setting": "COLO 205", "result": "25.3 µM (inactive)"}, {"measurement": "GI50", "setting": "EKVX", "result": "31.7 µM (inactive)"}, {"measurement": "GI50", "setting": "HCT-116", "result": "12.6 µM (inactive)"}, {"measurement": "GI50", "setting": "HOP-62", "result": "18.4 µM (inactive)"}, {"measurement": "GI50", "setting": "LOX IMVI", "result": "16.7 µM (inactive)"}, {"measurement": "GI50", "setting": "MCF7", "result": "14.8 µM (inactive)"}, {"measurement": "GI50", "setting": "MOLT-4", "result": "14.7 µM (inactive)"}, {"measurement": "GI50", "setting": "Malme-3M", "result": "40.3 µM (inactive)"}, {"measurement": "GI50", "setting": "NCI-H460", "result": "19.9 µM (inactive)"}, {"measurement": "GI50", "setting": "NCI-H522", "result": "16.6 µM (inactive)"}, {"measurement": "GI50", "setting": "OVCAR-5", "result": "24.4 µM (inactive)"}, {"measurement": "GI50", "setting": "RPMI-8226", "result": "4.79 µM (inactive)"}, {"measurement": "GI50", "setting": "SF-295", "result": "18.9 µM (inactive)"}, {"measurement": "GI50", "setting": "SK-MEL-28", "result": "34 µM (inactive)"}, {"measurement": "GI50", "setting": "SK-MEL-2", "result": "18 µM (inactive)"}, {"measurement": "GI50", "setting": "SK-MEL-5", "result": "16.8 µM (inactive)"}, {"measurement": "GI50", "setting": "SW-620", "result": "26.2 µM (inactive)"}, {"measurement": "GI50", "setting": "UACC-257", "result": "19.7 µM (inactive)"}]}
